Test results reported in PubChem BioAssay (NCI).
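Tested at 5 concentrations; 48 h exposure; 96-well plates; endpoints linearly interpolated, else capped at highest concentration. TGI denotes the concentration required for complete inhibition of growth.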

Legend:
Assay in all cases: NCI-60 cell line screen, 48 h
[1] = system: 786-0 renal
[2] = system: A498 renal
[3] = system: A549 NSCLC
[4] = system: ACHN renal
[5] = system: BT-549 breast
[6] = system: CAKI-1 renal
[7] = system: CCRF-CEM leukemia
[8] = system: COLO 205 colon
[9] = system: DU-145 prostate
[10] = system: EKVX NSCLC
[11] = system: HCT-116 colon
[12] = system: HL-60(TB) leukemia
[13] = system: HOP-62 NSCLC
[14] = system: HOP-92 NSCLC
[15] = system: HS 578T breast
[16] = system: HT29 colon
[17] = system: IGROV1 ovarian
[18] = system: K-562 leukemia
[19] = system: KM12 colon
[20] = system: LOX IMVI melanoma
[21] = system: M14 melanoma
[22] = system: MALME-3M melanoma
[23] = system: MCF7 breast
[24] = system: MDA-MB-231 breast
[25] = system: MDA-MB-435
[26] = system: MDA-N
[27] = system: MOLT-4 leukemia
[28] = system: NCI-H226 lung
[29] = system: NCI-H23 lung
[30] = system: NCI-H522 lung
[31] = system: NCI/ADR-RES ovarian
[32] = system: OVCAR-3 ovarian
[33] = system: OVCAR-5 ovarian
[34] = system: OVCAR-8 ovarian
[35] = system: PC-3 prostate
[36] = system: RPMI-8226 leukemia
[37] = system: RXF 393 renal
[38] = system: SF-268 CNS
[39] = system: SF-295 CNS
[40] = system: SK-MEL-2 melanoma
[41] = system: SK-MEL-28 melanoma
[42] = system: SK-MEL-5 melanoma
[43] = system: SK-OV-3 ovarian
[44] = system: SN12C renal
[45] = system: SNB-75 CNS
[46] = system: SR leukemia
[47] = system: SW-620 colon
[48] = system: T-47D breast
[49] = system: TK-10 renal
[50] = system: U251 CNS
[51] = system: UACC-257 melanoma
[52] = system: UACC-62 melanoma
[53] = system: UO-31 renal
[54] = system: HCC-2998 colon
[55] = system: HCT-15 colon
[56] = system: NCI-H460 lung
[57] = system: OVCAR-4 ovarian
[58] = system: SF-539 CNS
[59] = system: SNB-19 CNS

Compound `Cc1ccc2c(/C=C/c3ccc(N(C)C)cc3)ccc(C(C)C)cc1-2` has a TGI [1] of over 100 µM, a TGI [2] of over 100 µM and a TGI [3] of over 100 µM. It also gave a TGI [4] of over 100 µM, a TGI [5] of over 100 µM and a TGI [6] of over 100 µM. It also gave a TGI [7] of over 100 µM, a TGI [8] of over 100 µM and a TGI [9] of over 100 µM. It also gave a TGI [10] of over 100 µM, a TGI [11] of over 100 µM and a TGI [12] of 88.3 µM. It also gave a TGI [13] of over 100 µM, a TGI [14] of over 100 µM and a TGI [15] of over 100 µM. The TGI [16] was over 100 µM, the TGI [17] was over 100 µM and the TGI [18] was over 100 µM. It also gave a TGI [19] of over 100 µM, a TGI [20] of over 100 µM and a TGI [21] of over 100 µM. It also gave a TGI [22] of over 100 µM, a TGI [23] of over 100 µM and a TGI [24] of over 100 µM. The TGI [25] was over 100 µM, the TGI [26] was over 100 µM and the TGI [27] was over 100 µM. The TGI [28] was over 100 µM, the TGI [29] was over 100 µM and the TGI [30] was over 100 µM. For the same compound, the TGI [31] was over 100 µM, the TGI [32] was over 100 µM and the TGI [33] was over 100 µM. The TGI [34] was over 100 µM, the TGI [35] was over 100 µM and the TGI [36] was over 100 µM. For the same compound, the TGI [37] was over 100 µM, the TGI [38] was over 100 µM and the TGI [39] was over 100 µM. The TGI [40] was over 100 µM, the TGI [41] was over 100 µM and the TGI [42] was over 100 µM. For the same compound, the TGI [43] was over 100 µM, the TGI [44] was over 100 µM and the TGI [45] was over 100 µM. It also gave a TGI [46] of over 100 µM, a TGI [47] of over 100 µM and a TGI [48] of over 100 µM. For the same compound, the TGI [49] was over 100 µM, the TGI [50] was over 100 µM and the TGI [51] was over 100 µM. For the same compound, the TGI [52] was over 100 µM and the TGI [53] was over 100 µM.
For `Cc1cnc2sn(-c3ccc(Br)cc3)c(=O)c2c1`, the TGI [1] was over 100 µM, the TGI [3] was over 100 µM and the TGI [4] was over 100 µM. For the same compound, the TGI [5] was over 100 µM, the TGI [6] was 30.7 µM and the TGI [7] was 69.7 µM. It also gave a TGI [8] of 49.3 µM, a TGI [9] of over 100 µM and a TGI [10] of over 100 µM. The TGI [54] was over 100 µM, the TGI [11] was over 100 µM and the TGI [55] was over 100 µM. For the same compound, the TGI [12] was 49.7 µM, the TGI [13] was 81.5 µM and the TGI [14] was 68.8 µM. For the same compound, the TGI [15] was 88.1 µM, the TGI [16] was 75 µM and the TGI [17] was over 100 µM. It also gave a TGI [19] of over 100 µM, a TGI [20] of over 100 µM and a TGI [21] of over 100 µM. For the same compound, the TGI [22] was 43.6 µM, the TGI [23] was over 100 µM and the TGI [24] was over 100 µM. It also gave a TGI [25] of over 100 µM, a TGI [26] of over 100 µM and a TGI [27] of over 100 µM. It also gave a TGI [28] of over 100 µM, a TGI [29] of over 100 µM and a TGI [56] of over 100 µM. The TGI [30] was 16.9 µM, the TGI [31] was over 100 µM and the TGI [32] was 62.7 µM. It also gave a TGI [57] of 79.3 µM, a TGI [33] of over 100 µM and a TGI [34] of over 100 µM. It also gave a TGI [35] of over 100 µM, a TGI [36] of over 100 µM and a TGI [38] of over 100 µM. It also gave a TGI [39] of 97.8 µM, a TGI [58] of over 100 µM and a TGI [40] of over 100 µM. It also gave a TGI [41] of over 100 µM, a TGI [42] of over 100 µM and a TGI [43] of over 100 µM. It also gave a TGI [44] of over 100 µM, a TGI [59] of over 100 µM and a TGI [45] of over 100 µM. The TGI [46] was over 100 µM, the TGI [47] was 89.6 µM and the TGI [48] was 48.4 µM. It also gave a TGI [49] of over 100 µM, a TGI [50] of over 100 µM and a TGI [51] of over 100 µM. The TGI [52] was over 100 µM and the TGI [53] was over 100 µM.
With `COC(=O)CC1c2ccccc2N2C(=O)Cc3c([nH]c4ccccc34)C12` (centres undefined) the TGI [1] was over 100 µM, the TGI [2] was over 100 µM and the TGI [3] was over 100 µM. The TGI [4] was over 100 µM, the TGI [5] was over 100 µM and the TGI [6] was over 100 µM. It also gave a TGI [7] of over 100 µM, a TGI [8] of over 100 µM and a TGI [9] of over 100 µM. For the same compound, the TGI [10] was over 100 µM, the TGI [54] was over 100 µM and the TGI [11] was over 100 µM. It also gave a TGI [55] of over 100 µM, a TGI [13] of over 100 µM and a TGI [14] of over 100 µM. The TGI [15] was 96.2 µM, the TGI [16] was over 100 µM and the TGI [17] was over 100 µM. It also gave a TGI [18] of over 100 µM, a TGI [19] of over 100 µM and a TGI [20] of over 100 µM. The TGI [21] was over 100 µM, the TGI [22] was over 100 µM and the TGI [23] was over 100 µM. It also gave a TGI [24] of over 100 µM, a TGI [25] of over 100 µM and a TGI [26] of over 100 µM. For the same compound, the TGI [27] was over 100 µM, the TGI [28] was over 100 µM and the TGI [29] was over 100 µM. It also gave a TGI [56] of over 100 µM, a TGI [30] of over 100 µM and a TGI [31] of over 100 µM. For the same compound, the TGI [32] was over 100 µM, the TGI [57] was over 100 µM and the TGI [33] was over 100 µM. The TGI [34] was over 100 µM, the TGI [35] was over 100 µM and the TGI [36] was over 100 µM. It also gave a TGI [37] of over 100 µM, a TGI [38] of over 100 µM and a TGI [39] of over 100 µM. The TGI [40] was over 100 µM, the TGI [41] was over 100 µM and the TGI [42] was over 100 µM. The TGI [43] was over 100 µM, the TGI [44] was over 100 µM and the TGI [59] was over 100 µM. For the same compound, the TGI [45] was over 100 µM, the TGI [46] was over 100 µM and the TGI [47] was over 100 µM. It also gave a TGI [48] of over 100 µM, a TGI [49] of over 100 µM and a TGI [50] of over 100 µM. The TGI [51] was over 100 µM, the TGI [52] was over 100 µM and the TGI [53] was over 100 µM.
`ClCCCCCc1c2nc(c(CCCCCCl)c3ccc([nH]3)c(CCCCCCl)c3ccc([nH]3)c(CCCCCCl)c3nc1C=C3)C=C2` showed a TGI [1] of over 100 µM, a TGI [2] of over 100 µM and a TGI [3] of over 100 µM. It also gave a TGI [4] of over 100 µM, a TGI [5] of over 100 µM and a TGI [6] of over 100 µM. It also gave a TGI [7] of over 100 µM, a TGI [8] of over 100 µM and a TGI [10] of over 100 µM. The TGI [54] was over 100 µM, the TGI [11] was over 100 µM and the TGI [55] was over 100 µM. For the same compound, the TGI [12] was over 100 µM, the TGI [13] was over 100 µM and the TGI [14] was over 100 µM. For the same compound, the TGI [15] was over 100 µM, the TGI [16] was over 100 µM and the TGI [17] was over 100 µM. The TGI [18] was over 100 µM, the TGI [19] was over 100 µM and the TGI [20] was over 100 µM. For the same compound, the TGI [21] was over 100 µM, the TGI [22] was over 100 µM and the TGI [23] was over 100 µM. For the same compound, the TGI [24] was over 100 µM, the TGI [25] was over 100 µM and the TGI [26] was over 100 µM. For the same compound, the TGI [27] was over 100 µM, the TGI [28] was over 100 µM and the TGI [29] was over 100 µM. The TGI [56] was over 100 µM, the TGI [30] was over 100 µM and the TGI [31] was over 100 µM. The TGI [32] was over 100 µM, the TGI [57] was over 100 µM and the TGI [33] was over 100 µM. It also gave a TGI [34] of over 100 µM, a TGI [35] of over 100 µM and a TGI [36] of over 100 µM. The TGI [37] was over 100 µM, the TGI [38] was over 100 µM and the TGI [39] was over 100 µM. For the same compound, the TGI [58] was over 100 µM, the TGI [40] was over 100 µM and the TGI [41] was over 100 µM. The TGI [42] was over 100 µM, the TGI [43] was over 100 µM and the TGI [44] was over 100 µM. The TGI [59] was over 100 µM, the TGI [45] was over 100 µM and the TGI [46] was over 100 µM. The TGI [47] was over 100 µM, the TGI [48] was over 100 µM and the TGI [49] was over 100 µM. It also gave a TGI [50] of over 100 µM, a TGI [51] of over 100 µM and a TGI [52] of over 100 µM. The TGI [53] was over 100 µM.
